# B1: rasburicase (protein, listed as Aspergillus flavus)
# chain: SAVKAARYGKDNVRVYKVHKDEKTGVQTVYEMTVCVLLEGEIETSYTKADNSVIVATDSIKNTIYITAKQNPVTPPELFGSILGTHFIEKYNHIHAAHVNIVCHRWTRMDIDGKPHPHSFIRDSEEKRNVQVDVVEGKGIDIKSSLSGLTVLKSTNSQFWGFLRDEYTTLKETWDRILSTDVDATWQWKNFSGLQEVRSHVPKFDATWATAREVTLKTFAEDNSASVQATMYKMAEQILARQQLIETVEYSLPNKHYFEIDLSWHKGLQNTGKNAEVFAPQSDPNGLIKCTVGRSSLKSKL
# modifications: homotetramer
# notes: recombinant urate oxidase enzyme from genetically modified Saccharomyces cerevisiae with Aspergillus flavus cDNA
# How the values were obtained:
# [1] = tested on: isolated rat hearts with global ischemia and reperfusion; experiment: Isolated working rat heart with global ischemia and reperfusion: coronary flow and contractility
# Text: Effects on Coronary Flow and Contractility of the Heart with Global Ischemia and Reperfusion: […]
# isolated rat hearts = experiment: Isolated working rat heart: coronary flow and contractility
# Text: As biological materials the isolated hearts of male Wistar rats were used which were purchased from our Laboratory Animal Science and Welfare (LASW). The heart function (coronary flow and contractility) was investigated on the “Isolated Working Heart” model as previously described (Itter G et al., Laboratory Animals (2005) 39; 178-193). The hearts were first perfused according to Langendorff's method with an oxygenated (95% O2, 5% CO2) noncirculating Krebs-Henseleit solution of the following compositions (mmol/L): NaCl, 118; KCl, 4.7; CaCl2, 2.5; MgSO4, 1.6; NaHCO3, 24.9; KH2PO4, 1.2; glucose, 5.5; Na-pyruvate, 2.0. A catheter placed into the pulmonary artery drained the coronary effluent perfusate that was collected for determination of coronary flow and venous PO2 measurements. The left atrium was cannulated by an incision of the left auricle. After a 15-minute equilibration period at a fixed perfusion pressure of 60 mmHg, the heart was switched into the working mode at a fixed filling pressure of 11 mmHg. Coronary flow (CF) and pressure signals (dP/dtmax) were sampled at 500 Hz, averaged every 2 seconds.
# High rasburicase concentrations were tested in combination with different uric acid concentrations on isolated working rat hearts for their possible adverse cardiac effects caused by the generated hydrogenperoxide (H2O2).
# [2] = addition of ascorbic acid 1 mM to Rasb 50 μg/mL + UA 30 mg/L
# [3] = UA 15 mg/L (Rasb 50 μg/mL where present), 1 min before ischemia
# [4] = UA 15 mg/L (Rasb 50 μg/mL where present), 5 min before ischemia
# [5] = UA 15 mg/L (Rasb 50 μg/mL where present), Global Ischemia
# [6] = UA 15 mg/L (Rasb 50 μg/mL where present), Reperf. 5 min after Ischemia
# [7] = UA 15 mg/L (Rasb 50 μg/mL where present), Reperf. 10 min after Ischemia
# [8] = UA 15 mg/L (Rasb 50 μg/mL where present), Reperf. 15 min after Ischemia
# [9] = UA 30 mg/L (Rasb 50 μg/mL where present), 1 min before ischemia, Table 5
# [10] = UA 30 mg/L (Rasb 50 μg/mL where present), 5 min before ischemia, Table 5
# [11] = UA 30 mg/L (Rasb 50 μg/mL where present), Global Ischemia, Table 5
# [12] = UA 30 mg/L (Rasb 50 μg/mL where present), Reperf. 5 min after Ischemia, Table 5
# [13] = UA 30 mg/L (Rasb 50 μg/mL where present), Reperf. 10 min after Ischemia, Table 5
# [14] = UA 30 mg/L (Rasb 50 μg/mL where present), Reperf. 15 min after Ischemia, Table 5
molecule,measurement,setting,value
"O=C1O[C@H]([C@@H](O)CO)C(O)=C1O [ascorbic acid, Ascorbic acid]",contractility after ischemia/reperfusion (in words),[1]; [2],further improvement
same,coronary flow after ischemia/reperfusion (in words),[1]; [2],normalization
"O=c1[nH]c(=O)c2[nH]c(=O)[nH]c2[nH]1 [Uric Acid, Uric acid]",contractility (dP/dtmax),[1]; [3],3608 ± 318 mmHg/s
same,coronary flow (CF),[1]; [3],12.82 ± 0.75 mL/min
same,contractility (dP/dtmax),[1]; [4],3600 ± 250 mmHg/s
same,coronary flow (CF),[1]; [4],13.28 ± 0.7 mL/min
same,contractility (dP/dtmax),[1]; [5],61 ± 1 mmHg/s
same,coronary flow (CF),[1]; [5],0.38 ± 0.06 mL/min
same,contractility (dP/dtmax),[1]; [6],1057 ± 496 mmHg/s
same,coronary flow (CF),[1]; [6],4.47 ± 1.69 mL/min
same,contractility (dP/dtmax),[1]; [7],1284 ± 667 mmHg/s
same,coronary flow (CF),[1]; [7],4.71 ± 1.86 mL/min
same,contractility (dP/dtmax),[1]; [8],1403 ± 736 mmHg/s
same,coronary flow (CF),[1]; [8],4.73 ± 1.85 mL/min
same,contractility (dP/dtmax),[1]; [9],4017 ± 437 mmHg/s
same,coronary flow (CF),[1]; [9],13.11 ± 0.88 mL/min
same,contractility (dP/dtmax),[1]; [10],4020 ± 350 mmHg/s
same,coronary flow (CF),[1]; [10],13.33 ± 0.7 mL/min
same,contractility (dP/dtmax),[1]; [11],59 ± 2 mmHg/s
same,coronary flow (CF),[1]; [11],0.31 ± 0.02 mL/min
same,contractility (dP/dtmax),[1]; [12],2224 ± 418 mmHg/s
same,coronary flow (CF),[1]; [12],8.34 ± 1.88 mL/min
same,contractility (dP/dtmax),[1]; [13],2898 ± 314 mmHg/s
same,coronary flow (CF),[1]; [13],9.16 ± 1.29 mL/min
same,contractility (dP/dtmax),[1]; [14],3192 ± 273 mmHg/s
same,coronary flow (CF),[1]; [14],9.25 ± 0.63 mL/min
same,contractility (dP/dtmax),"isolated rat hearts; male, Wistar, rat, 6 mg/L",3867 ± 327 mmHg/s
same,coronary flow (CF),"isolated rat hearts; male, Wistar, rat, 6 mg/L",13.51 ± 1.02 mL/min
"OO [H2O2, hydrogenperoxide]",contractility (dP/dtmax),"isolated rat hearts; H2O2 10 μM, n = 4",4774 ± 185 mmHg/s
same,coronary flow (CF),"isolated rat hearts; H2O2 10 μM, n = 4",13.89 ± 0.55 mL/min
same,contractility (dP/dtmax),"isolated rat hearts; H2O2 30 μM, n = 4",4469 ± 167 mmHg/s
same,coronary flow (CF),"isolated rat hearts; H2O2 30 μM, n = 4",15.21 ± 1 mL/min
same,contractility (dP/dtmax),"isolated rat hearts; H2O2 100 μM, n = 4",4573 ± 268 mmHg/s
same,coronary flow (CF),"isolated rat hearts; H2O2 100 μM, n = 4",15.7 ± 1.3 mL/min
same,contractility (dP/dtmax),"isolated rat hearts; H2O2 200 μM, n = 4",1698 ± 69 mmHg/s
same,coronary flow (CF),"isolated rat hearts; H2O2 200 μM, n = 4",10.42 ± 0.3 mL/min
same,effect on coronary flow and contractility (in words),isolated rat hearts; concentrations higher than 100 μM H2O2,strongly reduced
B1,heart function (in words),"[1]; in the presence of uric acid, present prior and during ischemia/reperfusion",even improved
same,cardiodynamics after ischemia (in words),[1]; ischemia/reperfusion experiments,even improved
same,recovery after ischemia/reperfusion (in words),[1]; rasburicase 50 μg/mL in combination with uric acid 15 or 30 mg/L,concentration-dependently improved

# From patent publication US20100266567A1, “USE OF URATE OXIDASE FOR THE TREATMENT OR PROPHYLAXIS OF DISORDERS OR INDIRECT SEQUELAE OF THE HEART CAUSED BY ISCHEMIC OR REPERFUSION EVENTS” (sanofi-aventis, priority 2007, published 2010)
